Laboratory results reported in article PMC10046946, “Novel Phthalic-Based Anticancer Tyrosine Kinase Inhibitors: Design, Synthesis and Biological Activity” (Current Issues in Molecular Biology, 2023).
Values joined by “and” are separate entries in the source; they are usually repeats but may differ in a detail not shown here. Identical values can stand only once. Like-named read-outs stand apart in the source and are kept apart here.

What was measured:
[1] = tested on: HepG2 (human liver cancer); experiment: MTT cell proliferation assay, HepG2; format: cell-based; details: HepG2, 72 h of exposition, read-out: Anti-proliferative activity IC50, HepG2
Procedure: (§1) Tests to determine the effects of the synthesized compounds on cell viability and the half-maximal inhibitory concentration (IC50) were performed using the MTT assay, as described in our prior work.
(§2) The target compounds 5, 6, 8–12, 14, 15, 17–22 and 24–26 were tested for antiproliferative activity against six cancer cell lines: K562 (chronic myelogenous leukemia), HL-60 (promyelocytic leukemia), MCF-7 (breast adenocarcinoma), HepG2 (human liver cancer), A549 (lung carcinoma) and OKP-GS (renal cell carcinoma). The RPMI 1788 cells (B lymphocyte, human) were used as a control to evaluate the system toxicity of the studied compounds to normal cells. Sorafenib, nilotinib and lapatinib were utilized as reference standards for comparison.

[2] = biological target: T1, HER4 (Homo sapiens, UniProt Q15303); experiment: ADP-Glo kinase assay, HER4; format: biochemical
T1 construct: purchased Promega
Procedure: (§3) The ADP-Glo kinase assay (Promega, Madison, WI, USA) was used to screen compounds 5, 8–10, 14, 17, 19 and 24 for the tyrosine kinase (Kinase Selectivity Profiling System TK-1, Promega, Madison, WI, USA) and serine/threonine kinase (Kinase Selectivity Profiling System Other/CK-1, Promega, Madison, WI, USA) inhibition effects according to the manufacturer’s technical manual. The luminescence data were analyzed as described in our prior work.
(§4) The selectivity of the potential kinase inhibitor against a specific protein kinase or a specific family of kinases was investigated using the Kinase Selectivity Profiling System TK-1, Other/CK-1 and ADP-Glo™ Kinase assay kit (Promega, Madison, WI, USA).

[3] = biological target: T2, HER2 (Homo sapiens, UniProt P04626); experiment: ADP-Glo kinase assay, HER2; format: biochemical
T2 construct: purchased Promega
Procedure: as §3, §4

[4] = tested on: K562 cells; experiment: Cell cycle analysis (propidium iodide, flow cytometry); format: cell-based; details: 48 h
Procedure: Tumor cells were seeded on a 6-well plate at a density of 400,000 per well for K562. Test compounds 5, 14 and 15 were added at concentrations of 1, 5 and 10 μM in duplicate for 48 h. The methodology and analysis of the obtained data were performed as described in our prior work.
As shown above, compounds 5, 14 and 15 had significant antiproliferative activities, which is why their influences on the cell cycle and apoptosis level were determined, with the aim of understanding whether these effects are cytostatic or cytotoxic. In the cell cycle experiments, K562 cells were used. […] For the determination of changes in the distribution of cells in the phases of the cell cycle, the widely employed method of staining the cells with propidium iodide was used.

[5] = tested on: A549 (lung carcinoma); experiment: MTT cell proliferation assay, A549; format: cell-based; details: Homo sapiens, A549, 72 h of exposition, read-out: Anti-proliferative activity IC50, A549
Procedure: as §1, §2

[6] = biological target: T3, InsR (insulin receptor) (Homo sapiens, UniProt P06213); experiment: ADP-Glo kinase assay, InsR; format: biochemical
T3 construct: purchased Promega
Procedure: as §3, §4

[7] = tested on: K562 cell line; experiment: ROS determination (DCFH-DA, flow cytometry); format: cell-based; details: 48 h
Procedure: The redox status was assessed using the K562 cell line. […] Then, the cells were washed to remove the 2′,7′-dichlorodihydrofluorescein diacetate by centrifugation at 1000 rpm for 5 min. The measurements were conducted using a Cytomics FC500 Beckman Coulter flow cytometer (FL1 channel for DCF).

[8] = biological target: T4, Aurora B (Homo sapiens, UniProt Q96GD4); experiment: ADP-Glo kinase assay, Aurora B; format: biochemical
T4 construct: purchased Promega
Procedure: as §3, §4

[9] = biological target: T5, IGF1R (insulin-like growth factor 1 receptor) (Homo sapiens, UniProt P08069); experiment: ADP-Glo kinase assay, IGF1R; format: biochemical
T5 construct: purchased Promega
Procedure: as §3, §4

[10] = biological target: T6, PDGFRβ (Homo sapiens, UniProt P09619); experiment: ADP-Glo kinase assay, PDGFRβ; format: biochemical
T6 construct: purchased Promega
Procedure: as §3, §4

[11] = tested on: K562 cells; experiment: Annexin V-FITC/PI apoptosis assay; format: cell-based; details: 48 h
Procedure: K562 tumor cells were plated on a 6-well plate at a density of 400,000 per well. Test compounds 5, 14 and 15 were added at concentrations of 1, 5 and 10 μM in duplicate for 48 h. The methodology and analysis of the obtained data were performed as described in our prior work.
The effects of compounds 5, 14 and 15 on cell apoptosis were examined using the Annexin V-FITC Kit (Beckman Coulter, Brea, CA, USA) according to the protocols provided. The Annexin V-FITC Kit is an apoptosis detection kit based on the binding properties of annexin V to phosphatidylserine (PS) and on the DNA intercalating capability of propidium iodide (PI). K562 cells were treated with compound 5, 14 and 15 at 1, 5 and 10 μM for 48 h, after which annexin V/PI binding was measured by flow cytometry.

[12] = tested on: RPMI 1788 cells (B lymphocyte, human); experiment: MTT cell proliferation assay, normal RPMI 1788 cells; format: cell-based; details: normal human lymphoblastoid cells RPMI 1788, 72 h of exposition, read-out: Anti-proliferative activity IC50, RPMI 1788
Procedure: as §1, §2

[13] = biological target: T7, PDGFRα (Homo sapiens, UniProt P16234); experiment: ADP-Glo kinase assay, PDGFRα; format: biochemical
T7 construct: purchased Promega
Procedure: as §3, §4

[14] = tested on: OKP-GS (renal cell carcinoma); experiment: MTT cell proliferation assay, OKP-GS; format: cell-based; details: 72 h of exposition, read-out: Anti-proliferative activity IC50, OKP-GS
Procedure: as §1, §2

[15] = tested on: MCF-7 (breast adenocarcinoma); experiment: MTT cell proliferation assay, MCF-7; format: cell-based; details: Homo sapiens, MCF7, MCF-7, 72 h of exposition, read-out: Anti-proliferative activity IC50, MCF-7
Procedure: as §1, §2

[16] = tested on: K562 (chronic myelogenous leukemia); experiment: MTT cell proliferation assay, K562; format: cell-based; details: Homo sapiens, K562, 72 h of exposition, read-out: Anti-proliferative activity IC50, K562
Procedure: as §1, §2

[17] = tested on: HL-60 (promyelocytic leukemia); experiment: MTT cell proliferation assay, HL-60; format: cell-based; details: Homo sapiens, HL-60, 72 h of exposition, read-out: Anti-proliferative activity IC50, HL-60
Procedure: as §1, §2

[18] = biological target: T8, KDR (VEGFR-2) (Homo sapiens, UniProt P35968); experiment: ADP-Glo kinase assay, KDR; format: biochemical
T8 construct: purchased Promega

[19] = biological target: T9, Aurora A (Homo sapiens, UniProt O14965); experiment: ADP-Glo kinase assay, Aurora A; format: biochemical
T9 construct: purchased Promega
T9 sequence (O14965 1-403): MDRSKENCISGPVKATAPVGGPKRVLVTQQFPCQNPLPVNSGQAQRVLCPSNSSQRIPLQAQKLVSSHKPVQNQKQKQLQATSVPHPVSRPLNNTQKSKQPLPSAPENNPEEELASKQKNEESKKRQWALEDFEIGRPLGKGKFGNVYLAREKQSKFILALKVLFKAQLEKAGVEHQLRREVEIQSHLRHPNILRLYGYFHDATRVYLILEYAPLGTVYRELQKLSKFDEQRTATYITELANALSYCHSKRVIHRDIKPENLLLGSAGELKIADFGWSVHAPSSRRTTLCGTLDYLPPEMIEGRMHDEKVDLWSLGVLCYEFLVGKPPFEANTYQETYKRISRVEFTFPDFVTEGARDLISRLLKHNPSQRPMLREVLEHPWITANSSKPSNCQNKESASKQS
Procedure: as §3, §4

[20] = biological target: T10, EGFR (Homo sapiens, UniProt P00533); experiment: ADP-Glo kinase assay, EGFR; format: biochemical
T10 construct: purchased Promega
T10 sequence (P00533 25-1210): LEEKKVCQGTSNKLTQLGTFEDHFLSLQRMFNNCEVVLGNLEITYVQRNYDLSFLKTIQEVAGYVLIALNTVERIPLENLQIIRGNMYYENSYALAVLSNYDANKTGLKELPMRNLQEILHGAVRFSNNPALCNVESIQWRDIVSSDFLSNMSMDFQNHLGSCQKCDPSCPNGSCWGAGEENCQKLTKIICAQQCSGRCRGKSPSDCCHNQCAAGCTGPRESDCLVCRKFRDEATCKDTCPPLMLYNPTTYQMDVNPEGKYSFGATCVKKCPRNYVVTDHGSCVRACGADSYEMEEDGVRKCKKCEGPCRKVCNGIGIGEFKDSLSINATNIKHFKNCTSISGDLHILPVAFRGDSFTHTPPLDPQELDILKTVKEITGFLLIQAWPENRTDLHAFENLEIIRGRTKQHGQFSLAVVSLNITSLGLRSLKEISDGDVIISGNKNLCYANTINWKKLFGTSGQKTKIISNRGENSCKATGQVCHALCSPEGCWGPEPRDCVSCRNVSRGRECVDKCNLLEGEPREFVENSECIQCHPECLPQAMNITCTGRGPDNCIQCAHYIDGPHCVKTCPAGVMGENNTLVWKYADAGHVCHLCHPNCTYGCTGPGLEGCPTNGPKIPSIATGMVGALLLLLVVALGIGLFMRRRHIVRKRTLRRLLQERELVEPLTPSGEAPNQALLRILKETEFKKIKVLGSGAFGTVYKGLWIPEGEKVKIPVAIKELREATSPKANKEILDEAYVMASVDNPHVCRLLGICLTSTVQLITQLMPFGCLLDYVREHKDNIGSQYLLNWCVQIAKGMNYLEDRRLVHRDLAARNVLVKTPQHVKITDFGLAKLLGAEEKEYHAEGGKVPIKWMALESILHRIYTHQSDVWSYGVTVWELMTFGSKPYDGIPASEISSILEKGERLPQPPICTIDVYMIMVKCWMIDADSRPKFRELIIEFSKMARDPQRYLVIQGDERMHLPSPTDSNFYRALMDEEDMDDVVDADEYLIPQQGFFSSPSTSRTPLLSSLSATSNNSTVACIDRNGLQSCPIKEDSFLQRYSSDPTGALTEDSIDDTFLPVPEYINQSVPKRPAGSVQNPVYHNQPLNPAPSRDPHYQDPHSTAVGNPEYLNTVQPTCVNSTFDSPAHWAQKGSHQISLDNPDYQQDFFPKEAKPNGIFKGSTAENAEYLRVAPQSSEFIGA

T4 sequence (Q96GD4 whole entry): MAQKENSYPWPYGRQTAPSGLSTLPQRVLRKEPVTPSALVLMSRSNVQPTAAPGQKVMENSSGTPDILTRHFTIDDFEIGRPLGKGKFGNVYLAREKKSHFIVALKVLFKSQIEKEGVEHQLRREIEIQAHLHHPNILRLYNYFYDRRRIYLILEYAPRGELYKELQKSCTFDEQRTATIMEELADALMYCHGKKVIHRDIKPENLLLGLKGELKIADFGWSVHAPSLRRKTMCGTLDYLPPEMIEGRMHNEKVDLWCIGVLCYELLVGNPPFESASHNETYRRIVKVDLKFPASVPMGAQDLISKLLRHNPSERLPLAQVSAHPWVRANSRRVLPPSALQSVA
T8 sequence (P35968 20-1356): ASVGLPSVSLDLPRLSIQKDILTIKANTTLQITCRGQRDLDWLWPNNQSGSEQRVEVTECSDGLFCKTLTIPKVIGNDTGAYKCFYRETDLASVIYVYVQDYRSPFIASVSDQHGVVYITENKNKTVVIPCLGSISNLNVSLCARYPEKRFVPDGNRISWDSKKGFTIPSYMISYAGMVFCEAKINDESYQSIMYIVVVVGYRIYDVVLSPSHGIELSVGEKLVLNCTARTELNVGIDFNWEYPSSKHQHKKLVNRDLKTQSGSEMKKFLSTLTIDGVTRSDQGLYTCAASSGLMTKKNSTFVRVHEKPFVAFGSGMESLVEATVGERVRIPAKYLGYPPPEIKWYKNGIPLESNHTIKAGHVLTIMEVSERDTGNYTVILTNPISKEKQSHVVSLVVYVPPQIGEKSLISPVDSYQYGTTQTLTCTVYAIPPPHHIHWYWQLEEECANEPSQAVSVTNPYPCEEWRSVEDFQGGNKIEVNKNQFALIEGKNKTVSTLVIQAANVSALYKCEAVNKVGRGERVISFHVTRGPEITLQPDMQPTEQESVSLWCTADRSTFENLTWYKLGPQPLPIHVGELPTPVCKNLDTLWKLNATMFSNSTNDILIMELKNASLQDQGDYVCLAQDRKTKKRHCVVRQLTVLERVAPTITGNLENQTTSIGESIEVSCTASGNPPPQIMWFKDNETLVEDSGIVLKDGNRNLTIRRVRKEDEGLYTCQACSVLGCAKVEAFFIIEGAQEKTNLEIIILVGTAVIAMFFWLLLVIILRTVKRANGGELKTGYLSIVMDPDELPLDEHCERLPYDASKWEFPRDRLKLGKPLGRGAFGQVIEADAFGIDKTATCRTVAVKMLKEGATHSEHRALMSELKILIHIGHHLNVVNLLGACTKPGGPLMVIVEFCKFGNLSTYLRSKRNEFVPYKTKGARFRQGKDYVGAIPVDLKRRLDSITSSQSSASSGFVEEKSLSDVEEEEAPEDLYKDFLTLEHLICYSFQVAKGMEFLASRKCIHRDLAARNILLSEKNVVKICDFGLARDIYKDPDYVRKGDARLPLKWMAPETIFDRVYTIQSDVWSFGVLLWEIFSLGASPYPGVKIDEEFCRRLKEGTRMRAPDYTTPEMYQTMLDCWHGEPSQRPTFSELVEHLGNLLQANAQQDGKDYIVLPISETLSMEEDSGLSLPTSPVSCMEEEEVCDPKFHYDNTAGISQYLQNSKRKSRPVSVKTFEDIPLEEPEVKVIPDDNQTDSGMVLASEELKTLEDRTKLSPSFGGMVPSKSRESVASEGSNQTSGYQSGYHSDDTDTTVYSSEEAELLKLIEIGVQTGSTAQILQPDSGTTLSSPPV
T7 sequence (P16234 24-1089): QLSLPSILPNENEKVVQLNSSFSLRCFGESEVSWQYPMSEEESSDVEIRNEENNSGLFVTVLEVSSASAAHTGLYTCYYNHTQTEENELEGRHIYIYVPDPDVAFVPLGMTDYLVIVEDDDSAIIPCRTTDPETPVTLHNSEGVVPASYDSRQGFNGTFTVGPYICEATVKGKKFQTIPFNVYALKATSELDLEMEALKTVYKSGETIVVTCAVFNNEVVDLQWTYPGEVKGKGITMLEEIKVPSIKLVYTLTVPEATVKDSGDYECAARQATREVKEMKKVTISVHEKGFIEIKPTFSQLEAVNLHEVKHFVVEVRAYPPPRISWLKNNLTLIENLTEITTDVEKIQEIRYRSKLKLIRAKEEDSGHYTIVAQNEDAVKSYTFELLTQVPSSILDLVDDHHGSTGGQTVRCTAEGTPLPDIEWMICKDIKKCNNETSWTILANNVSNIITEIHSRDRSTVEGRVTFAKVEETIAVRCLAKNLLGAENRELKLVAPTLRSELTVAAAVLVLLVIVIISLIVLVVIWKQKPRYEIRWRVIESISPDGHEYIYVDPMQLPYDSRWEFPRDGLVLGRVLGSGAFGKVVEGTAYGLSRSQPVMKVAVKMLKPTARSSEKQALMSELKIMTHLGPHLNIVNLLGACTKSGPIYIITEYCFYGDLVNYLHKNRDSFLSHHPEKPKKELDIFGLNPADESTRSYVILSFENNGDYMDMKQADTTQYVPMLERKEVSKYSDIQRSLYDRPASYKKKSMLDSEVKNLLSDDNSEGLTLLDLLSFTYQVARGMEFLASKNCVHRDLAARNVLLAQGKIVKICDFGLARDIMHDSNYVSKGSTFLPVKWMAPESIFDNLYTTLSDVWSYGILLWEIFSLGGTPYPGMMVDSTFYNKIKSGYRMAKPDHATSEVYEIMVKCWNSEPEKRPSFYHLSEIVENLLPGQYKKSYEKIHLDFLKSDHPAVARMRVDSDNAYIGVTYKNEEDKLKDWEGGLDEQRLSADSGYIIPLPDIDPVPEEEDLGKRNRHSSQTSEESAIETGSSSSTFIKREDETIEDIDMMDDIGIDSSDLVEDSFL
T6 sequence (P09619 33-1106): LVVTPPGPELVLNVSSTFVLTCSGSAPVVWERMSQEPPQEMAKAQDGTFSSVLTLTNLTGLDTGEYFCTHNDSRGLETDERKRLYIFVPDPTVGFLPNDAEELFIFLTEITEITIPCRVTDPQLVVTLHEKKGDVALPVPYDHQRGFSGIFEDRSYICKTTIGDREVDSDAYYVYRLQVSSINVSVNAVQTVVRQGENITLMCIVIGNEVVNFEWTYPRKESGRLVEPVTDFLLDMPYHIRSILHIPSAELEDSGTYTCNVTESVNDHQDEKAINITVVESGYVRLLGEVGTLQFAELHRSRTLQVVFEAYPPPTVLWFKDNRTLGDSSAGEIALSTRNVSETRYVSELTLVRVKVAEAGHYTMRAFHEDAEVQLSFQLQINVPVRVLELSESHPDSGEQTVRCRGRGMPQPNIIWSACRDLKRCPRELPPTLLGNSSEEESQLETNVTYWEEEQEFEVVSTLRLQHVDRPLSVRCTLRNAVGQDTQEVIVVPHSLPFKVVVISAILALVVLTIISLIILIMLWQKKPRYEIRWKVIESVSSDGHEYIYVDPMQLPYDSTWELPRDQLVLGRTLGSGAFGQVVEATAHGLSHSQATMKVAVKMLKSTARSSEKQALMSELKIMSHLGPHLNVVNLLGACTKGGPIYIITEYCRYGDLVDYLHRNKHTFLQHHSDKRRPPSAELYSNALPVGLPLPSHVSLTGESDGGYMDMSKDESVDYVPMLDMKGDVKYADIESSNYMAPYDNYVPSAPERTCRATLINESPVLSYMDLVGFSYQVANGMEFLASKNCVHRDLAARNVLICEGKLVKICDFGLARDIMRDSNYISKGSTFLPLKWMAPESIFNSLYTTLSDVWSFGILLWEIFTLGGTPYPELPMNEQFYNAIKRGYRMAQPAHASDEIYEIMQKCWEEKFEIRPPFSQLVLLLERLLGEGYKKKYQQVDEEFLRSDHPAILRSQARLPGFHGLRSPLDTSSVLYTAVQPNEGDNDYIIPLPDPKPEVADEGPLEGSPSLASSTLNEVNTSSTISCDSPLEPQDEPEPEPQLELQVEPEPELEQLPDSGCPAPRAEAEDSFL

| Structure (SMILES) | IC50 ([1]; Homo sapiens, HepG2, 72 h) | inhibition at 10 µM [2] | inhibition at 10 µM [3] | Apoptosis, % (cell cycle analysis) ([4]; K562, 1 µM) | G1, % ([4]; K562, 1 µM) | G2/M, % ([4]; K562, 1 µM) | IC50 [5] | inhibition at 10 µM [6] | inhibition at 10 µM [8] | inhibition at 10 µM [9] | inhibition at 10 µM [10] | IC50 [12] | inhibition at 10 µM [13] | IC50 [14] | IC50 [15] | IC50 [16] | IC50 [17] | inhibition at 10 µM [18] | inhibition at 10 µM [19] | inhibition at 10 µM [20] | further results |
| --- | --- | --- | --- | --- | --- | --- | --- | --- | --- | --- | --- | --- | --- | --- | --- | --- | --- | --- | --- | --- | --- |
| Cc1cn(-c2cc(NC(=O)c3cccc(C(=O)Nc4cccc(C(F)(F)F)c4)c3)cc(C(F)(F)F)c2)cn1 [Compound 5, N1-(3-(4-methyl-1H-imidazol-1-yl)-5-(trifluoromethyl)phenyl)-N3-(3-(trifluoromethyl)phenyl)isophthalamide] | 8.84 µM | 0% | 33% | 14.56% | 37.92% | 45.08% | > 50 µM | 0% | 0% | 0% | 18% | 2.86 ± 0.09 µM | 73% | 17.8 ± 2.13 µM | 4.91 ± 1.27 µM | 3.42 ± 0.78 µM | 7.04 ± 0.29 µM | 18% | 0% | 0% | IC50 [1]: 7.84 ± 2.61 µM; S, % ([4]; K562, 1 µM): 17.0% and 17.01%; Apoptosis, % (cell cycle analysis) ([4]; K562, 5 µM): 37.20%; G1, % ([4]; K562, 5 µM): 31.77%; G2/M, % ([4]; K562, 5 µM): 50.09%; S, % ([4]; K562, 5 µM): 18.14%; Apoptosis, % (cell cycle analysis) ([4]; K562, 10 µM): 53.50%; G1, % ([4]; K562, 10 µM): 29.86%; G2/M, % ([4]; K562, 10 µM): 38.0% and 38.08%; S, % ([4]; K562, 10 µM): 32.05%; ROS Level, % of Control ([7]; K562, 5 µM): 76.76 % of Control; ROS Level, % of Control ([7]; K562, 10 µM): 64.66 % of Control; ROS Level, % of Control ([7]; K562, 20 µM, 20 µM): 62.9 % of Control; normal live cells (living cells) ([11]; K562, 1 µM): 79.72%; early apoptotic cells ([11]; K562, 5 µM): 29.07%; late apoptotic cells ([11]; K562, 5 µM): 19.93%; normal live cells (living cells) ([11]; K562, 5 µM): 48.87%; necrotic cells ([11]; K562, 10 µM): 16.38%; normal live cells (living cells) ([11]; K562, 10 µM): 38.66% |
| Cc1cn(-c2cc(NC(=O)c3cccc(C(=O)Nc4cc(-n5cnc(C)c5)cc(C(F)(F)F)c4)c3)cc(C(F)(F)F)c2)cn1 [Compound 10, N1,N3-bis(3-(4-methyl-1H-imidazol-1-yl)-5-(trifluoromethyl)phenyl)isophthalamide] | 23.2 ± 1.81 µM | 0% | 19% |  |  |  | > 50 µM | 0% | 0% | 0% | 0% | 13 ± 0.3 µM | 17% | 13.2 ± 1.3 µM | 38.5 ± 1.95 µM | 26 ± 2.38 µM | 35.8 ± 3.19 µM | 33% | 0% | 1% | melting point: 304 to 306 °C |
| Cc1cn(-c2cc(NC(=O)c3cccc(C(=O)N4CCN(C(=O)c5ccccc5F)CC4)c3)cc(C(F)(F)F)c2)cn1 [Compound 14, 3-(4-(2-Fluorobenzoyl)piperazine-1-carbonyl)-N-(3-(4-methyl-1H-imidazol-1-yl)-5-(trifluoromethyl)phenyl)benzamide] | 44.1 ± 4.19 µM | 0% | 14% | 14.28% | 32.65% | 46.95% | > 50 µM | 0% | 7% | 0% | 23% | 26.6 ± 2.31 µM | 24% | > 50 µM | 27.3 ± 0.16 µM | 7.71 ± 2.84 µM | 32.5 ± 1.5 µM | 26% | 0% | 21% | S, % ([4]; K562, 1 µM): 20.41%; Apoptosis, % (cell cycle analysis) ([4]; K562, 5 µM): 25.10%; G1, % ([4]; K562, 5 µM): 27.58%; G2/M, % ([4]; K562, 5 µM): 55.16%; S, % ([4]; K562, 5 µM): 17.25%; Apoptosis, % (cell cycle analysis) ([4]; K562, 10 µM): 38.02%; G1, % ([4]; K562, 10 µM): 31.21%; G2/M, % ([4]; K562, 10 µM): 51.08%; S, % ([4]; K562, 10 µM): 17.71%; ROS Level, % of Control ([7]; K562, 5 µM): 92.84 % of Control; ROS Level, % of Control ([7]; K562, 10 µM): 76.96 % of Control; ROS Level, % of Control ([7]; K562, 20 µM): 71.90 % of Control; normal live cells (living cells) ([11]; K562, 1 µM): 83.95%; normal live cells (living cells) ([11]; K562, 5 µM): 65.68%; normal live cells (living cells) ([11]; K562, 10 µM): 56.83%; melting point: 135 to 138 °C |
